Test: gradient 5% acetonitrile 3 min, to 50% in 2 min, to 85% in 15 min, held 3 min, 100 µL/min
Conditions: column: Zorbax Extend-C18 2.1 x 50 mm; eluents: water / acetonitrile, 0.1% formic acid
Outline: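 Mixtures of ~100 pure standards were chromatographed on a Zorbax Extend-C18 column (2.1 × 50 mm, 1.8 μm) at 100 μL/min using water and acetonitrile, each with 0.1% formic acid. Detection used a quadrupole time-of-flight mass spectrometer in positive and negative ionization mode, and data collection spanned 3 months. Retention time was obtained from adduct peaks picked computationally and each checked manually.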

Compared with Cc1cc(C)cc(NC(=O)Cn2nc(N3CCC(C)CC3)c3ccccc3c2=O)c1, O=C(Cn1nc(N2CCSCC2)c2ccccc2c1=O)Nc1ccc(Br)cc1 is lower in RP-LC retention time: 1100 s for the first, 1000 s for the second.

Going from CC(=O)N1c2ccc(S(=O)(=O)N3CCCCCC3)cc2CC1C(=O)NCc1ccc(F)cc1 (stereo unspecified) to CC(=O)c1ccc(S(=O)(=O)N2CCC[C@@H]2C(=O)NCc2csc(C)n2)cc1, the RP-LC retention time falls from 890 s to 677 s.

First: O=C(c1ccc(Cl)cc1)N(CCS(=O)(=O)N1CCNCC1)CC1CCCO1 (stereo unspecified)
Second: O=C(NCc1ccco1)C(=O)NCC1OCCN1C(=O)c1ccc(Cl)cc1 (stereo unspecified)
The RP-LC retention time of the first is lower: 581 s for the first, 705 s for the second.

Compared with Cc1ccsc1CN1CCc2[nH]nc(C(=O)N(C)C)c2C1, O=C(O)c1[nH]nc2c1COc1ccccc1-2 is higher in RP-LC retention time: 559 s for the first, 673 s for the second.

Going from CCc1nn2c(CNS(=O)(=O)c3ccc(C)cc3)c(-c3ccccc3)nc2s1 to O=S(=O)(Nc1ccc(F)c(F)c1)c1ccccc1-c1nc(-c2ccccc2)no1, the RP-LC retention time rises from 973 s to 1190 s.

Going from Cc1ccc(NC(=O)Nc2cccc(-c3ccc(N4CCOCC4)nn3)c2)cc1 to Cc1ccc(-c2coc(-c3ccc(NC(=O)NCCc4ccccc4)cc3)n2)c(C)c1, the RP-LC retention time rises from 704 s to 1260 s.

First: Cc1cccc(NC(=O)N2CCCC2c2nc(-c3ccc(F)cc3F)no2)c1C (stereo unspecified)
Second: Cc1ccc(NC(=O)N2CCCC2c2nc(-c3ccc(F)cc3F)no2)c(Cl)c1 (stereo unspecified)
The RP-LC retention time of the first is lower: 981 s for the first, 1110 s for the second.

Going from O=C(CCN1C(=O)C2C3C=CC(C3)C2C1=O)Nc1nc(-c2ccccc2)cs1 (stereo unspecified) to O=C(Cn1cccc1-c1nc(-c2ccccc2)no1)Nc1ccc2c(c1)OCCO2, the RP-LC retention time rises from 926 s to 1090 s.

Compared with Cc1ccc2nc(-c3ccc(C)c(NC(=O)C4CCCCC4)c3)[nH]c2c1, Cc1ccc(C)c(NC(=O)c2csc(-c3ccc(N4CCCC4)nc3)n2)c1 is higher in RP-LC retention time: 735 s for the first, 830 s for the second.

First: CC(=O)c1ccc(NC(=O)CCc2c(C)nn(-c3cc(N(C)C)ncn3)c2C)cc1
Second: Cn1c(=O)c2nc(SCCC(=O)Nc3ccc(Cl)cc3)n(C)c2n(C)c1=O
The RP-LC retention time of the first is higher: 749 s for the first, 732 s for the second.

First: CN1CCC(NC(=O)C2CCc3sc(C(=O)N4CCOCC4)cc3C2)CC1 (stereo unspecified)
Second: O=C(CCc1nnn2c1CN(C(=O)NC1CCCC1)CC2)N1CCOCC1
The RP-LC retention time of the first is lower: 606 s for the first, 615 s for the second.

First: NC(=O)C(c1ccccc1)(c1ccccc1)[C@@H]1CCN(CCc2ccc3c(c2)CCO3)C1
Second: O=C(NCCc1ccco1)C1CCCN(c2nc3ccccc3n(Cc3ccccc3)c2=O)C1 (stereo unspecified)
The RP-LC retention time of the first is lower: 740 s for the first, 1090 s for the second.

Compared with Cc1cccc(-n2c(=O)c3c(cc(C)n3C)n(CC(=O)N(C)c3ccccc3)c2=O)c1, CCn1c(=O)c(N2CCN(C(=O)Nc3cc(C)cc(C)c3)CC2)nc2ccccc21 is higher in RP-LC retention time: 864 s for the first, 927 s for the second.

Compared with CCc1nc2cc(N3CCC(C(=O)NCc4ccc(OC)cc4)CC3)cnc2nc1CC, CCc1ccc(CNC(=O)C2CCCN(c3nccnc3Oc3ccc(C)cc3)C2)cc1 (stereo unspecified) is higher in RP-LC retention time: 833 s for the first, 1150 s for the second.

First: Cc1cc2n(n1)CCC(=O)N2CCCC(=O)N(C)Cc1ccccc1
Second: Cn1cc(C(=O)NC2CCN(Cc3ccccc3)CC2)c2cccnc21
The RP-LC retention time of the first is higher: 681 s for the first, 594 s for the second.

Going from CCN1c2cc(F)ccc2C(=O)NC12CCN(C(=O)c1ccccc1)CC2 to CS(=O)(=O)N1CCC2(CC1)CN(c1cccc(F)c1)C2c1ccccc1 (stereo unspecified), the RP-LC retention time rises from 742 s to 1150 s.

Going from OC1CCOC2(CCN(Cc3ccccc3OC(F)(F)F)CC2)C1 (stereo unspecified) to COc1cccc(S(=O)(=O)N2CCC3(CC2)N(C2CCCC2)C(=O)CS3=O)c1 (stereo unspecified), the RP-LC retention time rises from 602 s to 780 s.

First: CCn1nccc1C(=O)N1CC(N(C2CCOCC2)S(C)(=O)=O)C1
Second: CC(C)n1cnc(S(=O)(=O)N2CCC(C(=O)Nc3ccc(F)c(Cl)c3)CC2)c1
The RP-LC retention time of the first is lower: 624 s for the first, 834 s for the second.

First: CC(C)CN1Cc2ccccc2-n2ccnc2C12CCN(C(=O)c1ccco1)CC2
Second: O=C(c1ccc(CS(=O)(=O)c2ccc(Br)cc2)o1)N1CCN(c2ccccn2)CC1
The RP-LC retention time of the first is higher: 654 s for the first, 616 s for the second.

Going from COc1ccc(-c2nc(NCCCN3CCC(N4CCCCC4)CC3)c3ccccc3n2)cc1 to COc1ccc(-c2noc(C3CCCN3C(=O)CNC(=O)c3cccs3)n2)cc1 (stereo unspecified), the RP-LC retention time falls from 1210 s to 788 s.

Compared with CC(C)Sc1nccn2nc(-c3cccs3)cc12, COC[C@@H]1CN(Cc2cc(C)nn2C)C[C@H]1c1ccccn1 is lower in RP-LC retention time: 1280 s for the first, 559 s for the second.

Compared with CN(C)c1ccc(CNC(=O)Cn2cnc3nc4c(cc3c2=O)CCCC4)cc1, Cc1nc2ccn(Cc3cccnc3)c(=O)c2cc1C(=O)NCCC1=CCCCC1 is higher in RP-LC retention time: 586 s for the first, 648 s for the second.

First: O=C(NCCN1CCOCC1)c1cc2n(n1)CCCN(Cc1ccc(F)cc1)C2=O
Second: COc1cc(C(C)=O)ccc1OCC(O)CN1CCN(c2ccccc2F)CC1 (stereo unspecified)
The RP-LC retention time of the first is lower: 606 s for the first, 652 s for the second.

Compared with Cc1cc(N2CCN(C(=O)CCc3c[nH]c4ccccc34)CC2)nc2ccccc12, O=C(Cn1cc(-c2nnco2)c2ccccc21)NCc1cccc(Cl)c1 is higher in RP-LC retention time: 584 s for the first, 817 s for the second.

Going from CS(=O)(=O)N1CCCc2ccc(NC(=O)Nc3ccc(Cl)c(Cl)c3)cc21 to Cc1nc(-c2csc(S(=O)(=O)N3CCC(C(=O)Nc4ccc(Cl)cc4)CC3)c2)no1, the RP-LC retention time rises from 971 s to 986 s.

Going from CC(C)C(=O)Nc1ccc(-n2cnc(C(=O)N3CCSCC3)c2)nc1 to CCC(C)NC(=O)C1CCN(c2cnc(N3CCCCC3)nc2)CC1 (stereo unspecified), the RP-LC retention time rises from 679 s to 686 s.

Compared with CC1CCN(C(=O)c2cc(S(=O)(=O)N3CCC(C(=O)N4CCCCCC4)CC3)cn2C)CC1, CC(C)NC(=O)C1CCN(c2cncnc2N2CCOCC2)CC1 is lower in RP-LC retention time: 839 s for the first, 570 s for the second.

Compared with Cc1ccc(S(=O)(=O)N2CCC(CC(=O)NC(C)Cc3ccco3)CC2)cc1 (stereo unspecified), O=S(=O)(c1cc(-c2ccno2)cs1)N(Cc1cccs1)C1CCCCC1 is higher in RP-LC retention time: 907 s for the first, 1190 s for the second.

Going from COCCCn1c(=O)c2ccccc2n(Cc2nc(-c3ccccc3Cl)no2)c1=O to Cn1nccc1C(=O)Nc1ccc(OCc2nnc(-c3ccccc3)o2)cc1, the RP-LC retention time falls from 1140 s to 786 s.

First: COc1cc2c(cc1OC)CC(=O)N(CCCN(C)C[C@H]1Cc3cc(OC)c(OC)cc31)CC2
Second: COc1ccc(NC(=O)C2CCCN(c3ncnc4c3nc3n4CCCCC3)C2)c(OC)c1 (stereo unspecified)
The RP-LC retention time of the first is lower: 677 s for the first, 777 s for the second.

First: CCOc1ccc(NC(=O)c2cc3sc(Cl)cc3n2CC)cc1
Second: CCCn1ccc2sc(C)c(C(=O)NCc3ccc(C)o3)c2c1=O
The RP-LC retention time of the first is higher: 1240 s for the first, 867 s for the second.

First: CC(=O)c1sc(NC(=O)C2COc3ccccc3O2)nc1C (stereo unspecified)
Second: Cc1nn2c(CNC(=O)c3cccc(Br)c3)c(C)nc2s1
The RP-LC retention time of the first is higher: 763 s for the first, 662 s for the second.

First: COc1ccc(OC)c(CNC(=O)c2c(O)c3cccnc3[nH]c2=O)c1
Second: Cc1ccc(F)c(NC(=O)c2c(O)c3cccnc3n(-c3ccc(F)cc3)c2=O)c1
The RP-LC retention time of the first is lower: 921 s for the first, 1140 s for the second.
